Measurements: ChEMBL document CHEMBL1255562, “6,7-Dihydroxy-4-phenylcoumarin as inhibitor of aldose reductase 2” (Bioorg Med Chem Lett, 2010)
pIC50: −log10 of the molar value.

Legend:
Sorbitol dehydrogenase = molecular target: T1, Sorbitol dehydrogenase (Homo sapiens, UniProt Q00796); assay: Inhibition sorbitol dehydrogenase by spectrophotometric analysis
T1 sequence (Q00796 whole entry): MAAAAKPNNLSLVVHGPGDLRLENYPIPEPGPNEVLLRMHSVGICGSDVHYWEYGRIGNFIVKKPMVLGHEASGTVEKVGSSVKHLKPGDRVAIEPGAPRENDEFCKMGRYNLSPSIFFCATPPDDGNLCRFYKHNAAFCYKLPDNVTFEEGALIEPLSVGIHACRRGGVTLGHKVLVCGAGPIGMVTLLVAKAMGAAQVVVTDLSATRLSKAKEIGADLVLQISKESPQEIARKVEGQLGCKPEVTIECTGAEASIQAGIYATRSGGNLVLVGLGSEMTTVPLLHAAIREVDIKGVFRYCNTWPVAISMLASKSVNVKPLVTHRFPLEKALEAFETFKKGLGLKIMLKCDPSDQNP

[1] = Selectivity index, ratio of IC50 for sorbitol dehydrogenase to IC50 for kidney aldose reductase 2
[2] = molecular target: Aldo-keto reductase family 1 member B1 (Homo sapiens, UniProt P15121); assay: Inhibition human recombinant […] by spectrophotometric analysis
[3] = Inhibition kidney aldose reductase 2 by spectrophotometric analysis
[4] = Selectivity index, ratio of IC50 for human recombinant […] to IC50 for kidney aldose reductase 2
Rattus norvegicus = organism: Rattus norvegicus; assay: Reduction of galactitol accumulation in Wistar rat lens after 24 hrs; format: functional, tissue-based; details: Lens of camera-type eye

Row | SMILES | pIC50 (Sorbitol dehydrogenase) | Ratio IC50 [1] | pIC50 [2] | pIC50 [3] | Ratio IC50 [4] | Activity (Rattus norvegicus)
1 | COc1ccc2ccc(=O)oc2c1 [HERNIARIN] | 3.91 |  |  |  |  | 
2 | O=c1cc(-c2ccccc2)c2cc(O)c(O)cc2o1 | 3.54 | 30 | 4.18 | 5.02 | 6.9 | Dose-dependent effect
3 | Cc1cc(=O)oc2cc(O)c(O)cc12 [4-METHYLESCULETIN] | 3.67 | 5.54 | 4.19 | 4.42 | 1.68 | 
4 | O=c1ccc2cc(O)ccc2o1 [6-HYDROXYCOUMARIN] | < 3.40 | > 2.56 | 3.77 | 3.81 | 1.1 | 
5 | O=C(O)Cc1cc(=O)oc2cc(O)c(O)cc12 | 3.47 | 6.27 | 4.20 | 4.27 | 1.19 | 
6 | Cc1cc(=O)oc2cc(O)ccc12 [HYMECROMONE] | 3.82 | 1.7 | 4.61 | 4.05 | 0.27 | 
7 | O=c1ccc2ccc(O)cc2o1 [UMBELLIFERONE] | 3.92 | 1.4 | 4.64 | 4.07 | 0.27 | 
8 | O=c1oc2ccccc2cc1O [3-HYDROXYCOUMARIN] | 3.97 | 0.62 | 4.21 | 3.76 | 0.35 | 
9 | O=C(O)Cc1cc(=O)oc2cc(O)ccc12 | 3.79 | 1.15 | 4.68 | 3.85 | 0.15 | 
10 | O=c1ccc2cc(O)c(O)cc2o1 [ESCULETIN] | 4.08 | 2.27 | 4.17 | 4.44 | 1.84 | 
11 | COc1cc2oc(=O)ccc2cc1O [ISOSCOPOLETIN] | < 3.60 | > 2.48 | 4.25 | 4.00 | 0.56 | 
12 | O=c1cc(-c2ccccc2)c2ccc(O)cc2o1 | 4.15 | 1.93 | 5.62 | 4.44 | 0.07 | 
13 | O=c1cc(O)c2ccccc2o1 [4-HYDROXYCOUMARINS] | < 3.40 | > 9.88 | < 3.40 | 4.39 | > 9.88 | 
14 | CC(/C=C1\SC(=S)N(CC(=O)O)C1=O)=C\c1ccccc1 | 4.17 |  |  | 5.85 |  | 
15 | COc1cc2ccc(=O)oc2cc1O [SCOPOLETIN] | 3.86 | 2.98 | 4.13 | 4.34 | 1.62 | 
16 | O=c1ccc2ccccc2o1 [COUMARIN] | < 3.40 |  | < 3.30 | < 3.40 |  | 
